Measurements from the NIST ThermoML archive (doi:10.1016/j.fluid.2011.12.029).

Conditions: Liquid, Vibrating tube method

CCCC[n+]1ccccc1.F[B-](F)(F)F [1-butylpyridinium tetrafluoroborate]
Conditions | mass density [kg/m3]
283.15 K, 100 kPa | 1225.36
283.15 K, 5000 kPa | 1227.5
283.15 K, 10000 kPa | 1229.65
283.15 K, 15000 kPa | 1231.84
283.15 K, 20000 kPa | 1233.82
283.15 K, 25000 kPa | 1235.92
283.15 K, 30000 kPa | 1237.85
283.15 K, 35000 kPa | 1239.79
283.15 K, 40000 kPa | 1241.64
283.15 K, 45000 kPa | 1243.52
283.15 K, 50000 kPa | 1245.28
283.15 K, 55000 kPa | 1247
283.15 K, 60000 kPa | 1248.71
283.15 K, 65000 kPa | 1250.41
288.15 K, 100 kPa | 1221.64
288.15 K, 5000 kPa | 1223.77
288.15 K, 10000 kPa | 1225.95
288.15 K, 15000 kPa | 1228.23
288.15 K, 20000 kPa | 1230.2
288.15 K, 25000 kPa | 1232.3
288.15 K, 30000 kPa | 1234.24
288.15 K, 35000 kPa | 1236.23
288.15 K, 40000 kPa | 1238.24
288.15 K, 45000 kPa | 1240.13
288.15 K, 50000 kPa | 1241.78
288.15 K, 55000 kPa | 1243.6
288.15 K, 60000 kPa | 1245.23
288.15 K, 65000 kPa | 1247.03
293.15 K, 100 kPa | 1218.02
293.15 K, 5000 kPa | 1220.21
293.15 K, 10000 kPa | 1222.35
293.15 K, 15000 kPa | 1224.51
293.15 K, 20000 kPa | 1226.68
293.15 K, 25000 kPa | 1228.73
293.15 K, 30000 kPa | 1230.74
293.15 K, 35000 kPa | 1232.84
293.15 K, 40000 kPa | 1234.73
293.15 K, 45000 kPa | 1236.53
293.15 K, 50000 kPa | 1238.41
293.15 K, 55000 kPa | 1240.31
293.15 K, 60000 kPa | 1241.96
293.15 K, 65000 kPa | 1243.85
298.15 K, 100 kPa | 1214.34
298.15 K, 5000 kPa | 1216.62
298.15 K, 10000 kPa | 1218.93
298.15 K, 15000 kPa | 1221.01
298.15 K, 20000 kPa | 1223.33
298.15 K, 25000 kPa | 1225.43
298.15 K, 30000 kPa | 1227.48
298.15 K, 35000 kPa | 1229.43
298.15 K, 40000 kPa | 1231.45
298.15 K, 45000 kPa | 1233.36
298.15 K, 50000 kPa | 1235.32
298.15 K, 55000 kPa | 1237.1
298.15 K, 60000 kPa | 1238.81
298.15 K, 65000 kPa | 1240.44
303.15 K, 100 kPa | 1210.91
303.15 K, 5000 kPa | 1213.26
303.15 K, 10000 kPa | 1215.59
303.15 K, 15000 kPa | 1217.74
303.15 K, 20000 kPa | 1219.92
303.15 K, 25000 kPa | 1222.02
303.15 K, 30000 kPa | 1224.11
303.15 K, 35000 kPa | 1226.12
303.15 K, 40000 kPa | 1228.08
303.15 K, 45000 kPa | 1229.97
303.15 K, 50000 kPa | 1231.94
303.15 K, 55000 kPa | 1233.82
303.15 K, 60000 kPa | 1235.58
303.15 K, 65000 kPa | 1237.3
308.15 K, 100 kPa | 1207.32
308.15 K, 5000 kPa | 1209.57
308.15 K, 10000 kPa | 1211.82
308.15 K, 15000 kPa | 1214.09
308.15 K, 20000 kPa | 1216.23
308.15 K, 25000 kPa | 1218.48
308.15 K, 30000 kPa | 1220.54
308.15 K, 35000 kPa | 1222.62
308.15 K, 40000 kPa | 1224.5
308.15 K, 45000 kPa | 1226.48
308.15 K, 50000 kPa | 1228.36
308.15 K, 55000 kPa | 1230.34
308.15 K, 60000 kPa | 1232.17
308.15 K, 65000 kPa | 1234.06
313.15 K, 100 kPa | 1203.87
313.15 K, 5000 kPa | 1206.23
313.15 K, 10000 kPa | 1208.56
313.15 K, 15000 kPa | 1210.88
313.15 K, 20000 kPa | 1213.11
313.15 K, 25000 kPa | 1215.28
313.15 K, 30000 kPa | 1217.47
313.15 K, 35000 kPa | 1219.51
313.15 K, 40000 kPa | 1221.56
313.15 K, 45000 kPa | 1223.48
313.15 K, 50000 kPa | 1225.54
313.15 K, 55000 kPa | 1227.32
313.15 K, 60000 kPa | 1229.18
313.15 K, 65000 kPa | 1231.01
318.15 K, 100 kPa | 1200.36
318.15 K, 5000 kPa | 1202.66
318.15 K, 10000 kPa | 1205.15
318.15 K, 15000 kPa | 1207.31
318.15 K, 20000 kPa | 1209.58
318.15 K, 25000 kPa | 1211.7
318.15 K, 30000 kPa | 1213.85
318.15 K, 35000 kPa | 1216.03
318.15 K, 40000 kPa | 1218.05
318.15 K, 45000 kPa | 1220.04
318.15 K, 50000 kPa | 1222.02
318.15 K, 55000 kPa | 1223.9
318.15 K, 60000 kPa | 1225.83
318.15 K, 65000 kPa | 1227.74
323.15 K, 100 kPa | 1196.96
323.15 K, 5000 kPa | 1199.29
323.15 K, 10000 kPa | 1201.77
323.15 K, 15000 kPa | 1204.12
323.15 K, 20000 kPa | 1206.47
323.15 K, 25000 kPa | 1208.68
323.15 K, 30000 kPa | 1210.86
323.15 K, 35000 kPa | 1212.95
323.15 K, 40000 kPa | 1215.03
323.15 K, 45000 kPa | 1217
323.15 K, 50000 kPa | 1218.98
323.15 K, 55000 kPa | 1220.89
323.15 K, 60000 kPa | 1222.84
323.15 K, 65000 kPa | 1224.65
328.15 K, 100 kPa | 1193.36
328.15 K, 5000 kPa | 1195.72
328.15 K, 10000 kPa | 1198.11
328.15 K, 15000 kPa | 1200.54
328.15 K, 20000 kPa | 1202.82
328.15 K, 25000 kPa | 1205.08
328.15 K, 30000 kPa | 1207.36
328.15 K, 35000 kPa | 1209.57
328.15 K, 40000 kPa | 1211.63
328.15 K, 45000 kPa | 1213.66
328.15 K, 50000 kPa | 1215.6
328.15 K, 55000 kPa | 1217.56
328.15 K, 60000 kPa | 1219.5
328.15 K, 65000 kPa | 1221.56
333.15 K, 100 kPa | 1190.07
333.15 K, 5000 kPa | 1192.59
333.15 K, 10000 kPa | 1195
333.15 K, 15000 kPa | 1197.4
333.15 K, 20000 kPa | 1199.91
333.15 K, 25000 kPa | 1202.04
333.15 K, 30000 kPa | 1204.36
333.15 K, 35000 kPa | 1206.49
333.15 K, 40000 kPa | 1208.69
333.15 K, 45000 kPa | 1210.67
333.15 K, 50000 kPa | 1212.88
333.15 K, 55000 kPa | 1214.74
333.15 K, 60000 kPa | 1216.56
333.15 K, 65000 kPa | 1218.57
